Assay [1] addresses T1, human NADK (Homo sapiens, UniProt O95544).
T1 sequence (O95544 1-446): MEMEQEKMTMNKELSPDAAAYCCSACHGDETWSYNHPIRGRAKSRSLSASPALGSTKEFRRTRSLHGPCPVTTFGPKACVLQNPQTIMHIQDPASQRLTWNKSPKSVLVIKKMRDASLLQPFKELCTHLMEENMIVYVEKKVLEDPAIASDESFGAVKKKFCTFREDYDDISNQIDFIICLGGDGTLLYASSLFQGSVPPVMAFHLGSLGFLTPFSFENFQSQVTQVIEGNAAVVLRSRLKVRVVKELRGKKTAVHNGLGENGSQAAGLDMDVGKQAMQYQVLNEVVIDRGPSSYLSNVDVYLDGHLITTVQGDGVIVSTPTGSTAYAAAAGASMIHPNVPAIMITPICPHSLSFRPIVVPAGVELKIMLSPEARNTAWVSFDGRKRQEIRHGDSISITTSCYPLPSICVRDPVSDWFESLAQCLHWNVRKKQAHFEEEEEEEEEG
Particulars: cited from earlier work.

The test system of assay [2] is ATP production. Particulars: 1 mM fuel; cascade with ADH, formDH and FDH; polyphosphate; 200 μL.
Experimental: Exemplary cascades were tested with ADH and formDH. […] The cascade was tested in 200 μL reaction volumes.
Assay [3] addresses T2, B. subtilis polyphosphate NAD+ kinase (PPNK), recombinant, 6x-histidine tag (Bacillus subtilis, UniProt O31612).
T2 sequence (O31612 1-266): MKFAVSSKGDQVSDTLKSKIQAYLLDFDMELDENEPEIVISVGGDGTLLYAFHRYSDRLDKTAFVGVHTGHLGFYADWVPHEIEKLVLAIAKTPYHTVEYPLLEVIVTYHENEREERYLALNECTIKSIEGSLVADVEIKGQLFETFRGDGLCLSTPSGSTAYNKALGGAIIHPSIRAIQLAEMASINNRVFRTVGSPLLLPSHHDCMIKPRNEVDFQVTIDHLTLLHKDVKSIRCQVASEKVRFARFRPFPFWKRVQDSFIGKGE
Kind of assay: Kinetics of polyphosphate NAD+ kinase (PPNK), coupled to TPNOX, absorbance at 340 nm. The following applies: 26° C., pH 7.8, 10 mM MgCl2, random bi-bi sequential.
Experimental: For overexpression, the enzymes were transformed into BL21(DE3) E. coli cells (New England Biolabs). […] Overexpression of the enzymes was induced by adding isopropyl-β-thiogalactopyranoside (IPTG) to a final concentration of 1 mM at an optical density (OD) of 0.6 at 600 nm. After 3 h of induction, the cells were harvested and sonicated in wash buffer A for TPNOX (10 mM imidazole, 300 mM NaCl, and 20 mM Tris-HCl pH 7.4) and wash buffer B for all other enzymes (40 mM imidazole, 300 mM NaCl, and 20 mM Tris-HCl pH 7.4). The cells were centrifuged at 7000 rpm for 1 h and 4° C. The protein was purified using a nickel-nitrilotriacetic acid (Ni-NTA) column with continuous elution up to 500 mM imidazole.
The reaction was carried out at 26° C. in a solution containing 10 mM Tris-HCl, pH 7.8, 10 mM MgCl2, and 0.02 μg/μL TPNOX. […] A molar absorption coefficient of 6.22×10^4 mol^−1 cm^−1 was used to convert absorption to molar concentration of NADPH.

The values that follow come from patent US20240318218A1 (The Trustees of Columbia University in The City of New York, priority 2023, published 2024).

In the case of `NC(=O)C1=CN([C@@H]2O[C@H](COP(=O)(O)OP(=O)(O)OC[C@H]3O[C@@H](n4cnc5c(N)ncnc54)[C@H](OP(=O)(O)O)[C@@H]3O)[C@@H](O)[C@H]2O)C=CC1` [NADPH], in assay [1], the “inhibition of human NADK” value is “inhibited”.
As for `O=CO` [formate], in assay [2], the ATP production rate is 1.3×10^7 total RLU/h.
Regarding `NC(=O)C1=CN([C@@H]2O[C@H](COP(=O)(O)OP(=O)(O)OC[C@H]3O[C@@H](n4cnc5c(N)ncnc54)[C@H](O)[C@@H]3O)[C@@H](O)[C@H]2O)C=CC1` [NADH], the kcat result in assay [3] (substrates NADH and ATP) is “(2.6 ± 1.9) × 10^2 min^−1”; in assay [3] (substrates NADH and poly(P) (sodium metaphosphate)), “(5.6 ± 2.6) × 10^2 min^−1”. Besides, in assay [1], the “inhibition of human NADK” value is reported as “inhibited”.
With `NC(=O)c1ccc[n+]([C@@H]2O[C@H](COP(=O)([O-])OP(=O)(O)OC[C@H]3O[C@@H](n4cnc5c(N)ncnc54)[C@H](OP(=O)(O)O)[C@@H]3O)[C@@H](O)[C@H]2O)c1` [NADP^+], the “inhibition of human NADK” value in assay [1] is listed as “not”.
On to `CO` [methanol], for which the ATP production rate in assay [2] is 7.2×10^7 total RLU/h.
